Results as given in US9944602B2, “Piperidinone herbicides” (E. I. DU PONT DE NEMOURS AND COMPANY, priority 2014, dated 2018).

Key:
Type in all cases: in vivo
[1] = tested on: barnyardgrass (Echinochloa crus-galli); assay: Test A preemergence barnyardgrass; settings: Echinochloa crus-galli, pre-emergence, 240 h, 0 to 100 scale, 0 no effect, 100 complete control, read-out: Barnyardgrass plant response rating; for pest or weed control at 125 g/ha: 125 g ai/ha; for pest or weed control at 500 g/ha: 500 g ai/ha
Outline: (§1)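 Directed soil spray at planting gives preemergence data; foliar application to one- to two-leaf plants gives postemergence data. Response is visual injury relative to untreated controls about 10 d after treatment, scored 0–100.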

kochia (Kochia scoparia) [2] = assay: Test A preemergence kochia; settings: Bassia scoparia, pre-emergence, 240 h, 0 to 100 scale, 0 no effect, 100 complete control, read-out: Kochia plant response rating; for pest or weed control at 125 g/ha: 125 g ai/ha; for pest or weed control at 500 g/ha: 500 g ai/ha
Outline: as §1

[3] = tested on: ragweed (common ragweed, Ambrosia elatior); assay: Test A preemergence ragweed; settings: Ambrosia artemisiifolia, pre-emergence, 240 h, 0 to 100 scale, 0 no effect, 100 complete control, read-out: Ragweed plant response rating; for pest or weed control at 125 g/ha: 125 g ai/ha; for pest or weed control at 500 g/ha: 500 g ai/ha
Outline: as §1

[4] = tested on: ryegrass, Italian (Italian ryegrass, Lolium multiflorum); assay: Test A preemergence ryegrass, Italian; settings: Lolium multiflorum, pre-emergence, 240 h, 0 to 100 scale, 0 no effect, 100 complete control, read-out: Ryegrass, Italian plant response rating; for pest or weed control at 125 g/ha: 125 g ai/ha; for pest or weed control at 500 g/ha: 500 g ai/ha
Outline: as §1

[5] = tested on: foxtail, giant (giant foxtail, Setaria faberii); assay: Test A preemergence foxtail, giant; settings: Setaria faberi, pre-emergence, 240 h, 0 to 100 scale, 0 no effect, 100 complete control, read-out: Foxtail, Giant plant response rating; for pest or weed control at 125 g/ha: 125 g ai/ha; for pest or weed control at 500 g/ha: 500 g ai/ha
Outline: as §1

[6] = tested on: pigweed (Amaranthus retroflexus); assay: Test A preemergence pigweed; settings: Amaranthus retroflexus, pre-emergence, 240 h, 0 to 100 scale, 0 no effect, 100 complete control, read-out: Pigweed plant response rating; for pest or weed control at 125 g/ha: 125 g ai/ha; for pest or weed control at 500 g/ha: 500 g ai/ha
Outline: as §1

[7] = tested on: barnyardgrass (Echinochloa crus-galli); assay: Test A postemergence barnyardgrass; settings: Echinochloa crus-galli, post-emergence, 240 h, 0 to 100 scale, 0 is no effect, 100 is complete control, read-out: Plant response rating, Barnyardgrass; for pest or weed control at 125 g/ha: 125 g ai/ha; for pest or weed control at 500 g/ha: 500 g ai/ha
Outline: as §1

kochia (Kochia scoparia) [8] = assay: Test A postemergence kochia; settings: Bassia scoparia, post-emergence, 240 h, 0 to 100 scale, 0 is no effect, 100 is complete control, read-out: Plant response rating, Kochia; for pest or weed control at 125 g/ha: 125 g ai/ha; for pest or weed control at 500 g/ha: 500 g ai/ha
Outline: as §1

[9] = tested on: ragweed (common ragweed, Ambrosia elatior); assay: Test A postemergence ragweed; settings: Ambrosia artemisiifolia, post-emergence, 240 h, 0 to 100 scale, 0 is no effect, 100 is complete control, read-out: Plant response rating, Ragweed; for pest or weed control at 125 g/ha: 125 g ai/ha; for pest or weed control at 500 g/ha: 500 g ai/ha
Outline: as §1

[10] = tested on: ryegrass, Italian (Italian ryegrass, Lolium multiflorum); assay: Test A postemergence ryegrass, Italian; settings: Lolium multiflorum, post-emergence, 240 h, 0 to 100 scale, 0 is no effect, 100 is complete control, read-out: Plant response rating, Ryegrass, Italian; for pest or weed control at 125 g/ha: 125 g ai/ha; for pest or weed control at 500 g/ha: 500 g ai/ha
Outline: as §1

[11] = tested on: foxtail, giant (giant foxtail, Setaria faberii); assay: Test A postemergence foxtail, giant; settings: Setaria faberi, post-emergence, 240 h, 0 to 100 scale, 0 is no effect, 100 is complete control, read-out: Plant response rating, Foxtail, Giant; for pest or weed control at 125 g/ha: 125 g ai/ha; for pest or weed control at 500 g/ha: 500 g ai/ha
Outline: as §1

[12] = tested on: pigweed (Amaranthus retroflexus); assay: Test A postemergence pigweed; settings: Amaranthus retroflexus, post-emergence, 240 h, 0 to 100 scale, 0 is no effect, 100 is complete control, read-out: Plant response rating, Pigweed; for pest or weed control at 125 g/ha: 125 g ai/ha; for pest or weed control at 500 g/ha: 500 g ai/ha
Outline: as §1

[13] = tested on: wheat (Triticum aestivum); assay: Test A postemergence wheat; settings: Triticum aestivum, post-emergence, 240 h, 0 to 100 scale, 0 is no effect, 100 is complete control, read-out: Plant response rating, Wheat; for plant injury at 125 g/ha: 125 g ai/ha; for plant injury at 500 g/ha: 500 g ai/ha
Outline: as §1

corn (Zea mays) = assay: Test A postemergence corn; settings: Zea mays, post-emergence, 240 h, 0 to 100 scale, 0 is no effect, 100 is complete control; for Corn plant response rating (crop injury, 0 = no effect, 100 = complete kill) at 125 g/ha: 125 g ai/ha; for Corn plant response rating (crop injury, 0 = no effect, 100 = complete kill) at 500 g/ha: 500 g ai/ha
Outline: as §1

[14] = tested on: blackgrass (Alopecurus myosuroides); assay: Test A postemergence blackgrass; settings: Alopecurus myosuroides, post-emergence, 240 h, 0 to 100 scale, 0 is no effect, 100 is complete control, read-out: Plant response rating, Blackgrass; for pest or weed control at 125 g/ha: 125 g ai/ha; for pest or weed control at 500 g/ha: 500 g ai/ha
Outline: as §1

[15] = tested on: galium (catchweed bedstraw, Galium aparine); assay: Test A postemergence galium; settings: Galium, post-emergence, 240 h, 0 to 100 scale, 0 is no effect, 100 is complete control, read-out: Plant response rating, Galium; for pest or weed control at 125 g/ha: 125 g ai/ha; for pest or weed control at 500 g/ha: 500 g ai/ha
Outline: as §1

rice (Oryza sativa) = assay: Test B flooded paddy test rice; settings: Oryza sativa, Table B, Flood, 250 g ai/ha, scale 0 to 100, read-out: Plant response rating
Outline: (§2)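 Plants at 2-leaf stage in pots flooded 3 cm above soil; compounds applied directly into paddy water, depth kept throughout.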

[16] = tested on: sedge, umbrella (small-flower umbrella sedge, Cyperus difformis); assay: Test B flooded paddy test sedge, umbrella; settings: Cyperus difformis, Table B, Flood, 250 g ai/ha, scale 0 to 100, read-out: Plant response rating
Outline: as §2

[17] = tested on: ducksalad (Heteranthera limosa); assay: Test B flooded paddy test ducksalad; settings: Heteranthera limosa, Table B, Flood, 250 g ai/ha, scale 0 to 100, read-out: Plant response rating
Outline: as §2

[18] = tested on: barnyardgrass (Echinochloa crus-galli); assay: Test B flooded paddy test barnyardgrass; settings: Echinochloa crus-galli, Table B, Flood, 250 g ai/ha, scale 0 to 100, read-out: Plant response rating
Outline: as §2

| SMILES | pest or weed control at 125 g/ha [1] [%] | pest or weed control at 500 g/ha [1] [%] | pest or weed control at 125 g/ha (kochia (Kochia scoparia) [2]) [%] | pest or weed control at 500 g/ha (kochia (Kochia scoparia) [2]) [%] | pest or weed control at 125 g/ha [3] [%] | pest or weed control at 500 g/ha [3] [%] | pest or weed control at 125 g/ha [4] [%] | pest or weed control at 500 g/ha [4] [%] | pest or weed control at 125 g/ha [5] [%] | pest or weed control at 500 g/ha [5] [%] | pest or weed control at 125 g/ha [6] [%] | pest or weed control at 500 g/ha [6] [%] | pest or weed control at 125 g/ha [7] [%] | pest or weed control at 500 g/ha [7] [%] | pest or weed control at 125 g/ha (kochia (Kochia scoparia) [8]) [%] | pest or weed control at 500 g/ha (kochia (Kochia scoparia) [8]) [%] | pest or weed control at 125 g/ha [9] [%] | pest or weed control at 500 g/ha [9] [%] | pest or weed control at 125 g/ha [10] [%] | pest or weed control at 500 g/ha [10] [%] | other results |
| --- | --- | --- | --- | --- | --- | --- | --- | --- | --- | --- | --- | --- | --- | --- | --- | --- | --- | --- | --- | --- | --- |
| O=C1NCC[C@H](c2cccc(C(F)(F)F)c2)[C@H]1C(=O)Nc1cccc(F)c1F [Compound 21, (3R,4S)—N-(2,3-difluorophenyl)-2-oxo-4-[3-(trifluoromethyl)phenyl]-3-piperidinecarboxamide] | 90 | 90 | 0 | 0 | 0 | 0 | 0 | 60 | 90 | 90 | 0 | 0 | 90 | 90 | 0 | 0 | 0 | 0 | 30 | 40 | pest or weed control at 125 g/ha [11]: 80%; pest or weed control at 500 g/ha [11]: 80%; pest or weed control at 125 g/ha [12]: 0%; pest or weed control at 500 g/ha [12]: 20%; plant injury at 125 g/ha [13]: 0%; plant injury at 500 g/ha [13]: 60%; Corn plant response rating (crop injury, 0 = no effect, 100 = complete kill) at 125 g/ha (corn (Zea mays)): 50%; Corn plant response rating (crop injury, 0 = no effect, 100 = complete kill) at 500 g/ha (corn (Zea mays)): 80%; pest or weed control at 125 g/ha [14]: 60%; pest or weed control at 500 g/ha [14]: 80%; pest or weed control at 125 g/ha [15]: 0%; pest or weed control at 500 g/ha [15]: 20%; plant injury at 250 g/ha (rice (Oryza sativa)): 10%; pest or weed control at 250 g/ha [16]: 0%; pest or weed control at 250 g/ha [17]: 100%; pest or weed control at 250 g/ha [18]: 75% |
| O=C1NCCC(c2cccc(C(F)(F)F)c2)C1C(=O)Nc1ccc(F)c(F)c1F (stereo not drawn) [Compound 30, 2-oxo-4-[3-(trifluoromethyl)phenyl]-N-(2,3,4-trifluorophenyl)-3-piperidinecarboxamide] | 90 | 90 | 0 | 0 | 0 | 0 | 20 | 50 | 90 | 90 | 0 | 0 | 80 | 80 | 0 | 0 | 0 | 0 | 0 | 20 | pest or weed control at 125 g/ha [11]: 80%; pest or weed control at 500 g/ha [11]: 80%; pest or weed control at 125 g/ha [12]: 0%; pest or weed control at 500 g/ha [12]: 0%; plant injury at 125 g/ha [13]: 30%; plant injury at 500 g/ha [13]: 60%; Corn plant response rating (crop injury, 0 = no effect, 100 = complete kill) at 125 g/ha (corn (Zea mays)): 30%; Corn plant response rating (crop injury, 0 = no effect, 100 = complete kill) at 500 g/ha (corn (Zea mays)): 70%; pest or weed control at 125 g/ha [14]: 70%; pest or weed control at 500 g/ha [14]: 80%; pest or weed control at 125 g/ha [15]: 0%; pest or weed control at 500 g/ha [15]: 0%; plant injury at 250 g/ha (rice (Oryza sativa)): 20%; pest or weed control at 250 g/ha [16]: 0%; pest or weed control at 250 g/ha [17]: 50%; pest or weed control at 250 g/ha [18]: 50% |
